Legend:
[1] = molecular target: T1, GABAA receptor-Cl- channel complex composed of rat α1, β2, γ2 subunits (Rattus norvegicus, UniProt P18508+P62813+P63138); assay: whole-cell patch clamp of GABA-mediated Cl- currents in transfected HEK 293 cells; type: cell-based; details: cell line 2C-1C, HEK 293, holding potential -60 mV
T1 construct: expressed in transfected cells
Text: GABAA receptors are gated channels which, upon binding to BAGA, allow chlorine ions to pass into the cell. In the presence of benzodiazepines. The GABAA receptor will allow GABA to open the channel and let more chlorine ion into the cell if the benzodiazepine is an agonist or less chlorine ions into the cell if the benzodiazepine is an inverse agonist. The amount of chlorine ions that pass through the GABAA receptor can be directly measured using the patch clamp assay. This assay measures the charge flow into and out of an electrode sealed on the surface of a cell. The flow of chlorine ions entering the cell is measured as a function of the current that leaves the cell to maintain electrical equilibrium within the cell as the gate opens. […] The range of sensitivity of the whole cell patch clamp assay is about 1000 pA and allows for the distinguishing of currents of between 2 and 5 pA.
These tests were carried out by patch-clamp electrophysiology of whole cells. The whole-cell configuration of patch clamp technique was used to record the GABA-mediated Cl-currents in human embryonic kidney cells transfected with GABAA receptor subunits. Patch pipettes were made of borosilicate glass with a resistance of 0.5 to 2 megohms. The cell was bathed in the buffer medium containing (mM) NaCl 135, KCl 5, MgCl2 1, CaCl2 1.8 and Hepes 5, pH 7.2. […]

[2] = system: recombinant receptors composed of α6 -, β2 - and β2-subunits; details: transiently expressed in cultured mammalian cells; cited from earlier work
[3] = system: α1 - and β1 -subunits of the bovine brain GABAA receptor; details: CHO cells, dexamethasone-inducible promoter; cited from earlier work

T1 sequence (P62813 28-455): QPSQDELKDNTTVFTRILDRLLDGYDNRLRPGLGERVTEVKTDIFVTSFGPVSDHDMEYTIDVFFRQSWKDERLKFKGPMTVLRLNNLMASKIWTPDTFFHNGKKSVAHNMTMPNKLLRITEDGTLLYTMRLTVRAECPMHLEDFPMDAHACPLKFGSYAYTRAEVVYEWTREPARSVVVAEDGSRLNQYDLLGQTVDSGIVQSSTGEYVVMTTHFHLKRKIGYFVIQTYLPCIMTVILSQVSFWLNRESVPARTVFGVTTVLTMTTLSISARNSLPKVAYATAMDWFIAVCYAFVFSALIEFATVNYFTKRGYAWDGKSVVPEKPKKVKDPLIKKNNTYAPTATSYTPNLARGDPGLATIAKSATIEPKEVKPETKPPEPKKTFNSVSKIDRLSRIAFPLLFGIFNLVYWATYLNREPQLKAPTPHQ
T1 sequence (P63138 26-474): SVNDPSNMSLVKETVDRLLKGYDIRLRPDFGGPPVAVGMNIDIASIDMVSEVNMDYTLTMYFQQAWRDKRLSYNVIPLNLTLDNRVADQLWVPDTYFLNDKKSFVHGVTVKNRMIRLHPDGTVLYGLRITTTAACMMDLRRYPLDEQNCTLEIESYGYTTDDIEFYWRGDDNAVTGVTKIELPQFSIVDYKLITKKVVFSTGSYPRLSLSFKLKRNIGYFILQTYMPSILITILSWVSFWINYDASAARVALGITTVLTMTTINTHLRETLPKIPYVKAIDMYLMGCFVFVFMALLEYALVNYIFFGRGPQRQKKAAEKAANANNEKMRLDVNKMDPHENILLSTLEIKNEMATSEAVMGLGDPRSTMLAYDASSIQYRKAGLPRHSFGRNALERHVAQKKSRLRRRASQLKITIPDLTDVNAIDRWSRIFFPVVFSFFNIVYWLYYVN
T1 sequence (P18508 39-466): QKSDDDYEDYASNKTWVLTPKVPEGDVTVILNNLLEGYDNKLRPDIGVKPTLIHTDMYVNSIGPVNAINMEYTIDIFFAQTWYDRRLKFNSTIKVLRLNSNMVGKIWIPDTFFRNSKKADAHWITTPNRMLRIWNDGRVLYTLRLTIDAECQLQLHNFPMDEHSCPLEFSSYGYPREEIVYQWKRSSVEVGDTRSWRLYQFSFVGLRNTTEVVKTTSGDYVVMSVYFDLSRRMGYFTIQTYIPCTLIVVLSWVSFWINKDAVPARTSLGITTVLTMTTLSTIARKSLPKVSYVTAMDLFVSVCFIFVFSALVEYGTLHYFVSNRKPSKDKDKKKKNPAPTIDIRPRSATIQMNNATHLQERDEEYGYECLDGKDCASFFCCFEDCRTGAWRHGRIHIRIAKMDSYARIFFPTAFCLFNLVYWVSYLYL

Row | Molecule | binding affinity to recombinant receptors [2] | effect on current response of α1β1 GABAA receptors [3] | further results
1 | NCCCC(=O)O [GABA, γ-Aminobutyric acid] | – | – | response of cells to drug (Cl- current) [1]: responsive
2 | CCOC(=O)c1ncn2c1CN(C)C(=O)c1cc(F)ccc1-2 [Ro15-1788] | high affinity | – | –
3 | CCOC(=O)c1ncn2c1CN(C)C(=O)c1cc(N=[N+]=[N-])ccc1-2 [Ro15-4513] | high affinity | – | –
4 | CN1CCc2cc3c(cc2[C@H]1[C@@H]1OC(=O)c2c1ccc1c2OCO1)OCO3 [bicuculline] | – | reversibly blocked | –
5 | NCc1cc(=O)[nH]o1 [muscimol] | high affinity | – | –
6 | picrotoxin | – | reversibly blocked | –

— patent US5166066A (priority 1991, dated 1992)
